Results published in ChEMBL document CHEMBL5620416, “Design, synthesis and development of a dual inhibitor of Topoisomerase 1 and poly (ADP-ribose) polymerase 1 for efficient killing of cancer cells” (Eur J Med Chem, 2023).
The source made the active and inactive calls. The rule behind the calls is not given here.

Legend:
HCT-116 [1] = assay: Induction of PARylation in human HCT-116 cells at 20 uM incubated for 2 to 8 hrs by Western blotting analysis; type: functional, cell-based; details: time 2-8 hrs
MCF-10A = assay: Cytotoxicity against human MCF-10A cells at 50 uM incubated for 72 hrs by MTT assay; type: toxicity, cell-based
HCT-116 [2] = assay: Cytotoxicity against human HCT-116 cells at less than 10 uM incubated for 7 to 10 days by crystal violet staining based assay; type: functional, cell-based; details: time 7-10 day
HCT-116 [3] = assay: Induction of cell cycle arrest in human HCT-116 cells assessed as accumulation of cells at G2 phase at 20 uM incubated for 48 hrs by PI staining based flow cytometry analysis (reference value: 26%); type: functional
[4] = target: Poly [ADP-ribose] polymerase 1 (Homo sapiens) (UniProt P09874); assay: Inhibition of recombinant human PARP1 at 20 uM incubated for 10 mins relative to control
Chain of Poly [ADP-ribose] polymerase 1 (Homo sapiens) (P09874 whole entry): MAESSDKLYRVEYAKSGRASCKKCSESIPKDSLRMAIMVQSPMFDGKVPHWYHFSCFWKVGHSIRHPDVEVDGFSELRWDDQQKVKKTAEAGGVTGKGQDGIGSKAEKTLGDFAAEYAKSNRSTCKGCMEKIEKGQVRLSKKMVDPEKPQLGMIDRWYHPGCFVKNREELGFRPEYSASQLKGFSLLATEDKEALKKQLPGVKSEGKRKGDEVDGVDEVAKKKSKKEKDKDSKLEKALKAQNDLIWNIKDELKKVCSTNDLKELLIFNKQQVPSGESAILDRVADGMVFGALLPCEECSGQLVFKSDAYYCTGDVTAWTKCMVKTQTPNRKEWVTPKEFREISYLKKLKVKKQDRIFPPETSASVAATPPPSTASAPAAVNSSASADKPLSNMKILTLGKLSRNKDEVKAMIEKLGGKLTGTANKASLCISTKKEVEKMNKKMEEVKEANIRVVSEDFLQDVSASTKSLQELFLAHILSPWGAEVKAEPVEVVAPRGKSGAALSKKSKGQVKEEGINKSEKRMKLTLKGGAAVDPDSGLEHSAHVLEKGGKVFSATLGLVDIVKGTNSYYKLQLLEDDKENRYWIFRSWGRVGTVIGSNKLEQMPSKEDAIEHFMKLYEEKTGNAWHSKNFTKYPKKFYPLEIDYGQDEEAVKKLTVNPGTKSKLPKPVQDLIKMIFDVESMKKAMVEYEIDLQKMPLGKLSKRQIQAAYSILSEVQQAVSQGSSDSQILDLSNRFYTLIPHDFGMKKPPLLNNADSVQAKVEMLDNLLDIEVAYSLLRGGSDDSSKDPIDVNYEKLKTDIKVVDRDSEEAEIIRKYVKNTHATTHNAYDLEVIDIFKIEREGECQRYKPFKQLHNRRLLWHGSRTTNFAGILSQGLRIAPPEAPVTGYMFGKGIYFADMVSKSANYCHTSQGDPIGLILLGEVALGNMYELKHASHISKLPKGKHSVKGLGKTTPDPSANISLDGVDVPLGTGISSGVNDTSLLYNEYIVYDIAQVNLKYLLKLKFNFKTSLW

[5] = tested on: DNA topoisomerase 1/Deoxyribonucleic acid (Homo sapiens); assay: Induction of TOP1-DNA covalent complex stabilization in human HCT-116 cells at 20 uM by immunofluorescence microscopic assay; type: cell-based; details: time 2-8 hrs, TDE = time-dependent effect
[6] = tested on: DNA topoisomerase 1/Deoxyribonucleic acid (Homo sapiens); assay: Induction of TOP1-DNA covalent complex stabilization in human HCT-116 cells at 10 to 20 uM after 4 to 6 hrs by RADAR assay; type: cell-based; details: dose 10-20 µM, time 4-6 hrs
[7] = Stability in human plasma assessed as compound degradation incubated for 15 mins by HPLC analysis; type: ADME, cell-free; details: read-out: Drug degradation
HCT-116 [8] = assay: Induction of cell cycle arrest in human HCT-116 cells incubated for 24 to 48 hrs by PI staining based flow cytometry analysis; type: functional; details: dose 5-20 µM, time 24-48 hrs
HCT-116 [9] = assay: Induction of cell cycle arrest in human HCT-116 cells assessed as accumulation of cells at G2 phase at 10 uM incubated for 48 hrs by PI staining based flow cytometry analysis (reference value: 26%); type: functional
[10] = Stability in human plasma incubated for 2 hrs by HPLC analysis; type: ADME, cell-free; details: read-out: Stability
HCT-116 [11] = assay: Induction of cell cycle arrest in human HCT-116 cells assessed as accumulation of cells at Sub-G1 phase at 10 uM incubated for 24 hrs by PI staining based flow cytometry analysis (reference value: 1.1 +/- 0.1%); type: functional
[12] = tested on: DNA topoisomerase 1/Deoxyribonucleic acid (Homo sapiens); assay: Induction of TOP1-DNA covalent complex degradation in human HCT-116 cells at 20 uM measured upto 24 hrs by RADAR assay; type: cell-based
HCT-116 [13] = assay: Induction of cell cycle arrest in human HCT-116 cells at 5 to 20 uM by PI staining based flow cytometry analysis; type: functional; details: dose 5-20 µM, time 24-48 hrs, TDE = time-dependent effect
PANC-1 = assay: Cytotoxicity against human PANC-1 cells at less than 10 uM incubated for 7 to 10 days by crystal violet staining based assay; type: functional, cell-based; details: time 7-10 day

inhibition [4]: 25% | Activity [5]: Tde | Activity [6]: Active | metabolised at 0.25 h [7]: 20% | remaining at 2 h [10]: > 70% | Activity [12]: Active
Structure (SMILES): O=C1c2cccc3cccc(c23)C(=O)N1CCSc1nnc(Cn2nc(Cc3ccc(F)cc3)c3ccccc3c2=O)o1
Activity (HCT-116 [1]): Active | Activity (MCF-10A): > 80% | Activity (HCT-116 [2]): Active | Activity (HCT-116 [3]): 34% | Activity (HCT-116 [8]): Dose-Dependent Effect | Activity (HCT-116 [9]): 32% | Activity (HCT-116 [11]): 30.8% | Activity (HCT-116 [13]): Tde | Activity (PANC-1): Active
